In US20040063659A1, “Novel 2'-halomethylidene,2'-ethenylidene and 2'-ethynyl cytidine, uridine and guanosine derivatives” (Merrell Pharmaceuticals Inc., priority 1988, published 2004):
≈ marks a conversion by molar mass, not a printed value.

System: HeLa cells
Assay: Inhibitory effects of compounds on HeLa cell proliferation in vitro
Type: cell-based
Conditions: Homo sapiens; exponentially growing HeLa cells, incubated with test compound for 96 hours; concentration at 50% inhibition of cell growth
Protocol: The inhibitory effect of various compounds of formula (1) on HeLa cell proliferation in vitro was determined according to the method described by Sunkara et al. [J. Natl Cancer Instit. 70, 505-509 (1983)]. Exponentially growing HeLa cells were incubated in the presence or absence of various concentrations of test compounds for 96 hours. IC50 values were calculated which represent the test compound concentration at 50% inhibition of cell growth.

SMILES: Nc1ccn([C@@H]2O[C@H](CO)[C@@H](O)/C2=C\F)c(=O)n1 [Compound A, (E)-2′-deoxy-2′-fluoromethylidene cytidine]
- IC50: 0.01 to 0.015 µg/mL (≈ 0.0389 to 0.0583 µM)

SMILES: Nc1ccn([C@@H]2O[C@H](CO)[C@@H](O)/C2=C/F)c(=O)n1 [Compound B, (Z)-2′-deoxy-2′-fluoromethylidene cytidine]
- IC50: 1 to 5 µg/mL (≈ 3.89 to 19.4 µM)
